Data taken from patent US8952024B2, “Herbicidal pyrimidone derivatives” (E I du Pont de Nemours and Company, priority 2009, dated 2015).

Assays:
Test in all cases: Test B pre-/postemergence plant response
Type in all cases: in vivo
[1] = tested on: wild oat (Avena fatua)
How it was run: (§1)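 Ratings reflect visual comparison with untreated controls 13 to 15 days after application, from 0 (no effect) to 100 (complete control). Application was preemergence to seeded loam/sand soil or postemergence to 1- to 4-leaf plants, with compound in a non-phytotoxic, surfactant-containing solvent.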

[2] = tested on: cocklebur (Xanthium strumarium)
How it was run: as §1

[3] = tested on: green foxtail (Setaria viridis)
How it was run: as §1

[4] = tested on: woolly cupgrass (Eriochloa villosa)
How it was run: as §1

[5] = tested on: velvetleaf (Abutilon theophrasti)
How it was run: as §1

[6] = tested on: kochia (Kochia scoparia)
How it was run: as §1

[7] = tested on: johnsongrass (Sorghum halepense)
How it was run: as §1

[8] = tested on: morningglory (Ipomoea coccinea)
How it was run: as §1

[9] = tested on: yellow nutsedge (Cyperus esculentus)
How it was run: as §1

[10] = tested on: large crabgrass (Digitaria sanguinalis)
How it was run: as §1

[11] = tested on: goosegrass (Eleusine indica)
How it was run: as §1

[12] = tested on: giant foxtail (Setaria faberii)
How it was run: as §1

[13] = tested on: Surinam grass (Brachiaria decumbens)
How it was run: as §1

[14] = tested on: blackgrass (Alopecurus myosuroides)
How it was run: as §1

[15] = tested on: soybean (Glycine max)
How it was run: as §1

[16] = tested on: downy bromegrass (Bromus tectorum)
How it was run: as §1

[17] = tested on: corn (Zea mays)
How it was run: as §1

[18] = 31 g ai/ha, postemergence, scale 0 to 100, 0 is no effect, 100 is complete control
[19] = Postemergence, 62 g ai/ha, scale 0 (no effect) to 100 (complete control), 13 to 15 days
[20] = Postemergence, 125 g ai/ha, visual rating after 13 to 15 days, scale 0 (no effect) to 100 (complete control)
[21] = Postemergence, 250 g ai/ha, scale 0 to 100 (0 no effect, 100 complete control)
[22] = Preemergence, 31 g ai/ha, scale 0 to 100 (0 no effect, 100 complete control)
[23] = Preemergence, 62 g ai/ha, scale 0 to 100, 0 no effect, 100 complete control
[24] = Preemergence, 125 g ai/ha, scale 0 to 100, 0 no effect, 100 complete control
[25] = 250 g ai/ha, Preemergence, 0 to 100 scale

SMILES: CCCCc1ncc(C(=O)C2=C(O)CCCC2=O)c(=O)n1-c1ccccc1C [Compound 62]
- Plant response rating, Oat, Wild [1, 18]: 5
- Plant response rating, Oat, Wild [1, 19]: 10
- Plant response rating, Oat, Wild [1, 20]: 25
- Plant response rating, Oat, Wild [1, 21]: 40
- Plant response rating, Oat, Wild [1, 22]: 0
- Plant response rating, Oat, Wild [1, 23]: 0
- Plant response rating, Oat, Wild [1, 24]: 0
- Plant response rating, Cocklebur [2, 18]: 25
- Plant response rating, Cocklebur [2, 25]: 10
- Plant response rating, Cocklebur [2, 19]: 55
- Plant response rating, Cocklebur [2, 20]: 55
- Plant response rating, Cocklebur [2, 21]: 75
- Plant response rating, Cocklebur [2, 22]: 0
- Plant response rating, Cocklebur [2, 23]: 0
- Plant response rating, Cocklebur [2, 24]: 0
- Plant response rating, Foxtail, Green [3, 18]: 40
- Plant response rating, Foxtail, Green [3, 25]: 10
- Plant response rating, Foxtail, Green [3, 19]: 70
- Plant response rating, Foxtail, Green [3, 20]: 80
- Plant response rating, Foxtail, Green [3, 21]: 85
- Plant response rating, Foxtail, Green [3, 22]: 0
- Plant response rating, Foxtail, Green [3, 23]: 0
- Plant response rating, Foxtail, Green [3, 24]: 10
- Plant response rating, Cupgrass, Woolly [4, 18]: 55
- Plant response rating, Cupgrass, Woolly [4, 25]: 10
- Plant response rating, Cupgrass, Woolly [4, 19]: 55
- Plant response rating, Cupgrass, Woolly [4, 20]: 60
- Plant response rating, Cupgrass, Woolly [4, 21]: 65
- Plant response rating, Cupgrass, Woolly [4, 22]: 0
- Plant response rating, Cupgrass, Woolly [4, 23]: 0
- Plant response rating, Cupgrass, Woolly [4, 24]: 5
- Plant response rating, Velvetleaf [5, 18]: 85
- Plant response rating, Velvetleaf [5, 19]: 95
- Plant response rating, Velvetleaf [5, 20]: 95
- Plant response rating, Velvetleaf [5, 21]: 100
- Plant response rating, Velvetleaf [5, 22]: 75
- Plant response rating, Velvetleaf [5, 23]: 75
- Plant response rating, Velvetleaf [5, 24]: 95
- Plant response rating, Kochia [6, 18]: 10
- Plant response rating, Kochia [6, 25]: 100
- Plant response rating, Kochia [6, 19]: 25
- Plant response rating, Kochia [6, 20]: 60
- Plant response rating, Kochia [6, 21]: 80
- Plant response rating, Kochia [6, 22]: 98
- Plant response rating, Kochia [6, 23]: 100
- Plant response rating, Kochia [6, 24]: 100
- Plant response rating, Johnsongrass [7, 18]: 0
- Plant response rating, Johnsongrass [7, 19]: 0
- Plant response rating, Johnsongrass [7, 20]: 0
- Plant response rating, Johnsongrass [7, 21]: 10
- Plant response rating, Johnsongrass [7, 22]: 0
- Plant response rating, Johnsongrass [7, 23]: 0
- Plant response rating, Johnsongrass [7, 24]: 0
- Plant response rating, Morningglory [8, 19]: 15
- Plant response rating, Morningglory [8, 20]: 75
- Plant response rating, Morningglory [8, 21]: 75
- Plant response rating, Morningglory [8, 22]: 0
- Plant response rating, Morningglory [8, 23]: 0
- Plant response rating, Morningglory [8, 24]: 0
- Plant response rating, Nutsedge, Yellow [9, 18]: 15
- Plant response rating, Nutsedge, Yellow [9, 19]: 25
- Plant response rating, Nutsedge, Yellow [9, 20]: 35
- Plant response rating, Nutsedge, Yellow [9, 21]: 55
- Plant response rating, Nutsedge, Yellow [9, 22]: 15
- Plant response rating, Nutsedge, Yellow [9, 23]: 25
- Plant response rating, Nutsedge, Yellow [9, 24]: 45
- Plant response rating, Crabgrass, Large [10, 18]: 55
- Plant response rating, Crabgrass, Large [10, 25]: 98
- Plant response rating, Crabgrass, Large [10, 19]: 75
- Plant response rating, Crabgrass, Large [10, 20]: 80
- Plant response rating, Crabgrass, Large [10, 21]: 85
- Plant response rating, Crabgrass, Large [10, 22]: 0
- Plant response rating, Crabgrass, Large [10, 23]: 50
- Plant response rating, Crabgrass, Large [10, 24]: 80
- Plant response rating, Goosegrass [11, 18]: 65
- Plant response rating, Goosegrass [11, 25]: 98
- Plant response rating, Goosegrass [11, 19]: 65
- Plant response rating, Goosegrass [11, 20]: 65
- Plant response rating, Goosegrass [11, 21]: 75
- Plant response rating, Goosegrass [11, 22]: 15
- Plant response rating, Goosegrass [11, 23]: 95
- Plant response rating, Goosegrass [11, 24]: 98
- Plant response rating, Foxtail, Giant [12, 18]: 55
- Plant response rating, Foxtail, Giant [12, 25]: 20
- Plant response rating, Foxtail, Giant [12, 19]: 65
- Plant response rating, Foxtail, Giant [12, 20]: 75
- Plant response rating, Foxtail, Giant [12, 21]: 80
- Plant response rating, Foxtail, Giant [12, 22]: 0
- Plant response rating, Foxtail, Giant [12, 23]: 0
- Plant response rating, Foxtail, Giant [12, 24]: 20
- Plant response rating, Surinam Grass [13, 18]: 20
- Plant response rating, Surinam Grass [13, 19]: 45
- Plant response rating, Surinam Grass [13, 20]: 65
- Plant response rating, Surinam Grass [13, 21]: 70
- Plant response rating, Surinam Grass [13, 22]: 5
- Plant response rating, Surinam Grass [13, 23]: 20
- Plant response rating, Surinam Grass [13, 24]: 25
- Plant response rating, Blackgrass [14, 18]: 15
- Plant response rating, Blackgrass [14, 25]: 0
- Plant response rating, Blackgrass [14, 19]: 30
- Plant response rating, Blackgrass [14, 20]: 30
- Plant response rating, Blackgrass [14, 21]: 50
- Plant response rating, Blackgrass [14, 22]: 0
- Plant response rating, Blackgrass [14, 23]: 0
- Plant response rating, Blackgrass [14, 24]: 0
- Plant response rating, Soybean [15, 18]: 75
- Plant response rating, Soybean [15, 19]: 80
- Plant response rating, Soybean [15, 20]: 90
- Plant response rating, Soybean [15, 21]: 95
- Plant response rating, Soybean [15, 22]: 0
- Plant response rating, Soybean [15, 23]: 80
- Plant response rating, Soybean [15, 24]: 80
- Plant response rating, Bromegrass, Downy [16, 18]: 30
- Plant response rating, Bromegrass, Downy [16, 25]: 0
- Plant response rating, Bromegrass, Downy [16, 19]: 45
- Plant response rating, Bromegrass, Downy [16, 20]: 50
- Plant response rating, Bromegrass, Downy [16, 21]: 50
- Plant response rating, Bromegrass, Downy [16, 22]: 0
- Plant response rating, Bromegrass, Downy [16, 23]: 0
- Plant response rating, Bromegrass, Downy [16, 24]: 0
- Plant response rating, Corn [17, 18]: 70
- Plant response rating, Corn [17, 19]: 70
- Plant response rating, Corn [17, 20]: 75
- Plant response rating, Corn [17, 21]: 80
- Plant response rating, Corn [17, 22]: 0
- Plant response rating, Corn [17, 24]: 0
